Columns and labels:
Format in all cases: physicochemical
[1] = TEM, cryo-TEM and AFM of the self-assembled micro-nano structure; details: micro-nano structure in aqueous solution, AFM and TEM
Experimental: (§1) Taking the self-assembled micro-nano structure of Compound II-1 as an example, II-1 was dissolved in DMSO (also can be an organic solvent such as ethanol) to prepare a 2 mM storage solution, and a small amount of storage solution was added to deionized water to prepare 20 μM working solution. Took 10 μL and dropped it on copper mesh, observed and analyzed under transmission electron microscope (TEM), cryo-transmission electron microscope. Took 10 μL and dropped it on mica plate, observed and analyzed under atomic force microscope (AFM). In FIGS. 5, A, B, C and D were TEM photographs, cryo-transmission electron microscope photographs, AFM photographs, and AFM analysis data, respectively. According to the photographs and data, II-1 was self-assembled into nanosheets with a diameter of 40-70 nm and a thickness of 3.7-3.9 nm. […]

[2] = DLS particle size / self-assembly of the compounds in aqueous solution; details: 20 μM working solution in deionized water; for DLS particle size peak (nm) / DLS particle size range (nm): micro-nano structure
Experimental: The term “particle size” refers to the size of particles, also known as “granularity” or “diameter”. When a certain physical characteristic or physical behavior of the measured particle is closest to a homogeneous sphere (or combination) of a certain diameter, the diameter (or combination) of the sphere is taken as the equivalent particle size of the measured particle. The particle size parameter of the micro-nano structure of the present invention is measured by the principle of dynamic light scattering (DLS), specifically measured by a laser particle size analyzer.
as §1
Among them, the particle size test results of II-12 to II-15 in aqueous solution are shown in FIG. 6, and the results of dynamic light scattering DLS of II-16 to 1-18 are shown in FIG. 7).

[3] = Photothermal stability, repeated 808 nm irradiation and cooling; details: for reduction of absorbance after 5 times of irradiation: ultraviolet spectra before and after
Experimental: We selected sample No. 3 to test the photothermal stability experiment. As shown in the right figure of FIG. 8, sample No. 3 was irradiated with 808 nm laser for 9 minutes and then the temperature increased from room temperature 30° C. to 62° C., and then allowed to naturally cool down to room temperature, and irradiated with 808 nm laser again for 9 minutes, then naturally cooled down, and repeated for 5 times. […] After 9 minutes of irradiation, the temperature was raised by […], and then returned to room temperature.

[4] = Photothermal effect in vitro under 808 nm laser irradiation; details: for light-to-heat conversion efficiency: 20 μM in water; for light-to-heat conversion efficiency / photothermal effect: 808 nm (2.6 W/cm-2) laser 10 minutes; for temperature rise: 40 μM in water, 808 nm (2.6 W/cm-2) laser, within 10 minutes; for photothermal effect: in water
Experimental: A total of 4 groups of samples, 3 mL was taken and added to a cuvette respectively, and the lid was sealed.
The sample No. 2 was 10 μM II-1, and the specific preparation method is 3 mL deionized water plus 15 μL II-1 stock solution (2 mM, dissolved in DMSO);
The sample No. 3 was 20 μM II-1, and the specific preparation method was that 3 mL deionized water was added 30 μL II-1 stock solution (2 mM, dissolved in DMSO);
The sample No. 4 was 40 μM II-1, and the specific preparation method was that 3 mL deionized water was added 60 μL II-1 stock solution (2 mM, dissolved in DMSO).
Each sample was irradiated with an 808 nm laser for 5 minutes, and the temperature data was recorded every 5 seconds with a thermal imager, and the temperature corresponding to the time was plotted in origin, as shown in the left figure of FIG. 8. […] The temperature of sample No. 2 increased from room temperature 30° C. to 54° C., and the temperature was raised by 24° C. The temperature of sample No. 3 increased from room temperature 30° C. to 62° C., and the temperature was raised by 32° C. The temperature of sample No. 4 increased from room temperature 30° C. to 77° C., and the temperature was raised by 47° C.
Using a method similar to Example 8, 10 μM, 20 μM and 40 μM samples of II-16, II-17 and II-18 were prepared, respectively, they were irradiated under an 808 nm (2.6 W/cm-2) laser for 10 minutes. 40 μM II-16 to 18 samples can rise by 40° C., 36° C. and 18° C. respectively within 10 minutes under laser irradiation.
Using a method similar to that in Example 8, three samples of 20 μM of 1-16, II-17 and II-18 in water were irradiated with 808 nm (2.6 W/cm-2) laser for 10 minutes, and the light-to-heat conversion efficiency calculation result thereof were shown in FIG. 10. […] And II-18 not only has poor light-heat effect, but also has low light-heat conversion efficiency, only 12.9%.

[5] = Assembly stability in different media
Experimental: Since II-16 has excellent photothermal properties, its assembly stability in serum-containing medium and in PBS at different temperatures was tested, as shown in FIG. 13.

[6] = 808 nm laser at 2.6 W/cm-2, irradiated and cooled 5 times

## CCN1C(=CC=C2CCCC(C=CC3=C(C#N)C(=C(C#N)C#N)OC3(C)C)=C2Cl)C(C)(C)c2ccc3ccccc3c21 [II-14]
[1]
  Morphology: nano-sheet
[2]
  DLS particle size peak (nm): 78 nm
  DLS particle size range (nm): 27-134 nm

## C#CCOc1ccc(C2CC(=CC=C3N(CC)c4ccccc4C3(C)C)C(Cl)=C(C=CC3=C(C#N)C(=C(C#N)C#N)OC3(C)C)C2)cc1 (centres unmarked) [II-13]
[1]
  Morphology: nano-sheet
[2]
  DLS particle size peak (nm): 74 nm
  DLS particle size range (nm): 40-110 nm

## CC1(C)C(/C=C/C=C/C=C/C=C2\N(CCCCS(=O)(=O)[O-])c3ccc4ccccc4c3C2(C)C)=[N+](CCCCS(=O)(=O)[O-])c2ccc3ccccc3c21.[Na+] [ICG, reference compound]
[3]; 808 nm laser, after 9 minutes of irradiation
  temperature raised by, first irradiation: 15 °C
[3]; after return to room temperature, second irradiation
  temperature on laser irradiation again: the temperature cannot be increased
[2]
  particle size by DLS: could not be detected

## CCN(CC)c1ccc2c(c1)OC1=C(C=C3CCCC(C=CC4=C(C#N)C(=C(C#N)C#N)OC4(C)C)=C3Cl)CCCC1=C2 [II-18]
[4]
  light-to-heat conversion efficiency: 12.9%
  temperature rise: 18 °C
  photothermal effect: poor photothermal effect
[1]
  Morphology: nano-sheet
[2]
  DLS particle size peak (nm): 42 nm
  DLS particle size range (nm): 42-139 nm

## CCn1c(=CC=C2CCCC(C=CC3=C(C#N)C(=C(C#N)C#N)OC3(C)C)=C2Cl)c2cccc3cccc1c32 [II-16]
[4]
  light-to-heat conversion efficiency: 56.9%
  temperature rise: 40 °C
  photothermal effect: excellent photothermal effect
[3]; [6]
  temperature in repeated irradiations: each time the temperature can rise to the same temperature as the first time
  reduction of absorbance after 5 times of irradiation: 2%
[1]
  Morphology: nano-sheet
[2]
  DLS particle size peak (nm): 199 nm
  DLS particle size range (nm): 163-293 nm
[5]; at 37° C.
  absorbance over time: the absorbance will decrease with time
[5]; serum-containing medium and PBS at different temperatures
  aggregation mode (H aggregation): will not change due to changes in external conditions

## C=CCOc1ccc(C2CC(=CC=C3N(CC)c4ccccc4C3(C)C)C(Cl)=C(C=CC3=C(C#N)C(=C(C#N)C#N)OC3(C)C)C2)cc1 (centres unmarked) [II-12]
[1]
  Morphology: nano-sheet
[2]
  DLS particle size peak (nm): 78 nm
  DLS particle size range (nm): 20-160 nm

## CCN1C(=CC=C2CCCC(C=CC3=C(C#N)C(=C(C#N)C#N)OC3(C)C)=C2Cl)Sc2ccccc21 [II-17]
[4]
  light-to-heat conversion efficiency: 25%
  temperature rise: 36 °C
  photothermal effect: excellent photothermal effect
[3]; [6]
  reduction of absorbance after 5 times of irradiation: 75%
[1]
  Morphology: nano-sheet
[2]
  DLS particle size peak (nm): 10 nm
  DLS particle size range (nm): 10-86 nm

## C#CCOc1ccc(C2CC(=CC=C3N(CC)c4ccccc4C3(C)C)C(NCCn3ccnc3[N+](=O)[O-])=C(C=CC3=C(C#N)C(=C(C#N)C#N)OC3(C)C)C2)cc1 (centres unmarked) [II-15]
[1]
  Morphology: nano-sheet
[2]
  DLS particle size peak (nm): 60 nm
  DLS particle size range (nm): 40-110 nm
